Like-named read-outs stand apart in the source and are kept apart here.
Tests used:
[1] = system: Nrf2 (Keap1-NRF2 nuclear translocation); test: U2OS translocation assay (PathHunter U2OS Keap1-NRF2 Nuclear Translocation Cell Line); type: cell-based
Summary of the method: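 PathHunter U2OS line expressing Nrf2-enzyme-donor fusion and nuclear acceptor enzyme, 7 500 cells/well in Opti-MEM, 1% FBS. Compounds incubated 3 h at 37° C. Luminescence after 60 min with detection reagent, normalized between 1% DMSO and 10 μM andrographolide.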

Keap1 (A321-C624) (h) = target: T1, Keap1 (A321-C624) (h) (Homo sapiens, UniProt Q14145); test: Surface Plasmon Resonance binding assay to Kelch domain of KEAP1; settings: Biacore T200, 25° C., immobilized His-Thromb-KEAP1(A321-C624), single cycle kinetics, KD=kd/ka from 1:1 fit; read-out: Keap1 (A321-C624) (h) direct/SPR (KD)
T1 construct: His-Thromb-KEAP1(A321-C624) acquired from Novalix (batch PU-P01) was immobilized covalently by amine coupling; His tag (N); thrombin cleavage site (Thromb) (N); purchased Novalix batch PU-P01
Procedure: EXAMPLE 85: SURFACE PLASMON RESONANCE
Binding assay to Kelch domain of KEAP1 was performed by Surface Plasmon Resonance (SPR) on a Biacore T200 (GE Healthcare) at 25° C. using CM5 chip. His-Thromb-KEAP1(A321-C624) acquired from Novalix (batch PU-P01) was immobilized covalently by amine coupling using standard wizard protocol, at a concentration of 20 μg/mL in sodium acetate pH 5.5. The ligand was captured until 1250 RU was reached. Amine blank is used as the reference flow cell. Binding of analyte to the ligand was monitored in real time with associations of 180 seconds and a dissociation of 720 seconds. Association (ka) and dissociation (kd) rates were fitted with a simple 1:1 kinetic interaction model using Biacore T200 Evaluation Software (GE Healthcare). The equilibrium constant (KD=kd/ka) was calculated from these fitted parameters. […] The Biacore binding assay was performed with a flowrate of 50 μL/min using a running buffer of 10 mM HEPES (pH 7.4), 150 mM NaCl, 3 mM EDTA, 1 mM TCEP, 0.05% P20,5% DMSO. Double subtraction was used by subtracting both reference flow cell and previous blank cycle (with running buffer). Solvent correction was applied to correct DMSO bulk effect.

[2] = read-out: CELLULAR U2OS EC50, U2OS Keap1-NRF2 nuclear translocation cells, 3 h incubation, luminescence, normalized between 1% DMSO and 10 μM andrographolide
[3] = Homo sapiens, U2OS, 3 h, read-out: CELLULAR U2OS EC50 (nM), U2OS Keap1-NRF2 nuclear translocation cells, 3 h incubation, luminescence, normalized between 1% DMSO and 10 μM andrographolide

T1 sequence (Q14145 321-624): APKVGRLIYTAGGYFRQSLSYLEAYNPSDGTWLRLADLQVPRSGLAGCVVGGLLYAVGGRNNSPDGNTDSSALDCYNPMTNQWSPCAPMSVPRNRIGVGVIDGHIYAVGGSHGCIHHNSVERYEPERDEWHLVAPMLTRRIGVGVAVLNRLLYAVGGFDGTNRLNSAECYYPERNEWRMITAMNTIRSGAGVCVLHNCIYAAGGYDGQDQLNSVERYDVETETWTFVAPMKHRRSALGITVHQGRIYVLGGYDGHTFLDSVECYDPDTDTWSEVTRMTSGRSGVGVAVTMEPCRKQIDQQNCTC

| SMILES | EC50 [1, 2] [nM] | Kd (Keap1 (A321-C624) (h)) [nM] | EC50 [1, 3] [nM] |
| --- | --- | --- | --- |
| Cc1ccc2cc1CN1Cc3cc(ccc3OS1(=O)=O)OC[C@H](C)CCn1nnc3c(C)c(ccc31)C2CC(=O)O (single isomer, unassigned) [Example 45a] | 11.8 | 0.594 |  |
| Cc1ccc2cc1CN1Cc3cc(ccc3N(C)S1(=O)=O)OCCCCn1nnc3c(C)c(ccc31)C2CC(=O)O (single isomer, unassigned) [Example 39a, [4,26,31-Trimethyl-27,27-dioxo-21-oxa-27λ^6-thia-1,14,15,16,26-pentaazahexacyclo[20.5.3.1^3,70.1^9,130.0^12,160.0^25,29]dotriaconta-3(32),4,6,9(31),10,12,14,22,24,29-decaen-8-yl]acetic acid] | 14.2 | 0.137 |  |
| [2H]C([2H])(C(=O)O)[C@@H]1c2ccc(C)c(c2)CN2Cc3cc(ccc3OS2(=O)=O)OCCCCn2nnc3c(C)c1ccc32 [Example 55a, [(8R)-4,31-Dimethyl-27,27-dioxo-21,26-dioxa-27λ^6-thia-1,14,15,16-tetraazahexacyclo[20.5.3.1^3,70.1^9,130.0^12,160.0^25,29]dotriaconta-3(32),4,6,9(31),10,12,14,22,24,29-decaen-8-yl](^2H2)acetic acid] |  | 2 | 183 |
| Cc1ccc2cc1CN1Cc3c(ccc(c3Cl)OCCCCn3nnc4c(C)c(ccc43)C2CC(=O)O)OS1(=O)=O (single isomer, unassigned) [Example 66b, [30-Chloro-4,31-dimethyl-27,27-dioxo-21,26-dioxa-27λ^6-thia-1,14,15,16-tetraazahexacyclo[20.5.3.1^3,70.1^9,130.0^12,160.0^25,29]dotriaconta-3(32),4,6,9(31),10,12,14,22,24,29-decaen-8-yl]acetic acid] | 17.9 | 0.833 |  |
| Cc1ccc2cc1CN1Cc3cc(ccc3OS1(=O)=O)OCCSCCn1nnc3c(C)c(ccc31)C2CC(=O)O (single isomer, unassigned) [Example 63a, [4,32-Dimethyl-28,28-dioxo-22,27-dioxa-19,28λ^6-dithia-1,14,15,16-tetraazahexacyclo[21.5.3.1^3,70.1^9,130.0^12,160.0^26,30]tritriaconta-3(33),4,6,9(32),10,12,14,23,25,30-decaen-8-yl]acetic acid] |  | 4.39 | 57.1 |
| Cc1ccc2cc1CN1Cc3cc(ccc3OS1(=O)=O)N(C)CCCCn1nnc3c(C)c(ccc31)C2CC(=O)O (stereo not drawn) [Example 42, [4,21,31-Trimethyl-27,27-dioxo-26-oxa-27λ^6-thia-1,14,15,16,21-pentaazahexacyclo[20.5.3.1^3,70.1^9,130.0^12,160.0^25,29]dotriaconta-3(32),4,6,9(31),10,12,14,22,24,29-decaen-8-yl]acetic acid] |  | 1.57 | 21.4 |
| Cc1ccc2cc1CN1Cc3cc(c(Cl)cc3OS1(=O)=O)OCCCCn1nnc3c(C)c(ccc31)C2CC(=O)O (single isomer, unassigned) [Example 22a, [23-Chloro-4,31-dimethyl-27,27-dioxo-21,26-dioxa-27λ^6-thia-1,14,15,16-tetraazahexacyclo[20.5.3.1^3,70.1^9,130.0^12,160.0^25,29]dotriaconta-3(32),4,6,9(31),10,12,14,22,24,29-decaen-8-yl]acetic acid] | 17.2 | 0.631 |  |
| Cc1ccc2cc1CN1Cc3cc(ccc3OS1(=O)=O)Oc1ccccc1NCCCn1nnc3c(C)c(ccc31)C2CC(=O)O (single isomer, unassigned) [Example 71a, [4,37-Dimethyl-33,33-dioxo-27,32-dioxa-33λ^6-thia-1,14,15,16,20-pentaazaheptacyclo[26.5.3.1^3,70.1^9,130.0^12,160.0^21,260.0^31,35]octatriaconta-3(38),4,6,9(37),10,12,14,21,23,25,28,30,35-tridecaen-8-yl]acetic acid] |  | 19.3 | 42 |
| Cc1ccc2cc1CN1Cc3cc(ccc3OS1(=O)=O)OCCCn1nnc3c(C)c(ccc31)C2CC(=O)O (racemic) [Example 2, [4,30-Dimethyl-26,26-dioxo-20,25-dioxa-26λ^6-thia-1,14,15,16-tetraazahexacyclo[19.5.3.1^3,70.1^9,130.0^12,160.0^24,28]hentriaconta-3(31),4,6,9(30),10,12,14,21,23,28-decaen-8-yl]acetic acid] |  | 35.2 | 830 |
| Cc1c2ccc3c1nnn3CCCCOc1ccc3c(c1)CN(Cc1cc(ccc1Cl)C2CC(=O)O)S(=O)(=O)O3 (single isomer, unassigned) [Example 9b, [4-Chloro-31-methyl-27,27-dioxo-21,26-dioxa-27λ^6-thia-1,14,15,16-tetraazahexacyclo[20.5.3.1^3,70.1^9,130.0^12,160.0^25,29]dotriaconta-3(32),4,6,9(31),10,12,14,22,24,29-decaen-8-yl]acetic acid] | 845 | 9.99 |  |
| Cc1c2ccc3c1nnn3CCCCOc1ccc3c(c1)CN(Cc1cc(ccc1Cl)C2CC(=O)O)S(=O)(=O)O3 (single isomer, unassigned) [Example 9a, [4-Chloro-31-methyl-27,27-dioxo-21,26-dioxa-27λ^6-thia-1,14,15,16-tetraazahexacyclo[20.5.3.1^3,70.1^9,130.0^12,160.0^25,29]dotriaconta-3(32),4,6,9(31),10,12,14,22,24,29-decaen-8-yl]acetic acid] | 48.2 | 2.12 |  |
| COCCC1CCOc2ccc3c(c2)CN([C@H](C)c2cc(ccc2C)[C@H](CC(=O)O)c2ccc4c(nnn4C1)c2C)S(=O)(=O)O3 (single isomer, unassigned) [Example 24b] | 2.45 | 1.23 |  |
| Cc1c2ccc3c1nnn3CCCCOc1ccc3c(c1)CN(Cc1cc(cc(C(F)(F)F)c1)C2CC(=O)O)S(=O)(=O)O3 (single isomer, unassigned) [Example 12a, [31-Methyl-27,27-dioxo-5-(trifluoromethyl)-21,26-dioxa-27λ^6-thia-1,14,15,16-tetraazahexacyclo[20.5.3.1^3,70.1^9,130.0^12,160.0^25,29]dotriaconta-3(32),4,6,9(31),10,12,14,22,24,29-decaen-8-yl]acetic acid] |  | 3070 | 3160 |
| COc1cc2cc(c1OC)CN1Cc3cc(ccc3OS1(=O)=O)OCCCCn1nnc3c(C)c(ccc31)C2CC(=O)O (single isomer, unassigned) [Example 35b, [4,5-Dimethoxy-31-methyl-27,27-dioxo-21,26-dioxa-27λ^6-thia-1,14,15,16-tetraazahexacyclo[20.5.3.1^3,70.1^9,130.0^12,160.0^25,29]dotriaconta-3(32),4,6,9(31),10,12,14,22,24,29-decaen-8-yl]acetic acid] | > 3160 | 7450 |  |
| COCCC1CCOc2ccc3c(c2)CN([C@H](C)c2cc(ccc2C)[C@@H](CC(=O)O)c2ccc4c(nnn4C1)c2C)S(=O)(=O)O3 (single isomer, unassigned) [Example 24c] |  | 5 | 60 |
| Cc1ccc2cc1[C@@H](C)N1Cc3cc(ccc3OS1(=O)=O)OCCCCn1nnc3c(C)c(ccc31)[C@@H]2CC(=O)O [Example 3a, [(2R,8R)-2,4,31-Trimethyl-27,27-dioxo-21,26-dioxa-27λ^6-thia-1,14,15,16-tetraazahexacyclo[20.5.3.1^3,70.1^9,130.0^12,160.0^25,29]dotriaconta-3(32),4,6,9(31),10,12,14,22,24,29-decaen-8-yl]acetic acid] |  | 7.64 | 79.5 |
| Cc1c2ccc3c1nnn3CCCCOc1ccc3c(c1)CN(Cc1cc(ccc1F)C2CC(=O)O)S(=O)(=O)O3 (stereo not drawn) [Example 14, [4-Fluoro-31-methyl-27,27-dioxo-21,26-dioxa-27λ^6-thia-1,14,15,16-tetraazahexacyclo[20.5.3.1^3,70.1^9,130.0^12,160.0^25,29]dotriaconta-3(32),4,6,9(31),10,12,14,22,24,29-decaen-8-yl]acetic acid] |  | 14.2 | 582 |
| Cc1c2ccc3c1nnn3CCCCOc1ccc3c(c1)CN(Cc1cccc(c1)C2CC(=O)O)S(=O)(=O)O3 (stereo not drawn) [Example 6, [31-Methyl-27,27-dioxo-21,26-dioxa-27λ^6-thia-1,14,15,16-tetraazahexacyclo[20.5.3.1^3,70.1^9,130.0^12,160.0^25,29]dotriaconta-3(32),4,6,9(31),10,12,14,22,24,29-decaen-8-yl]acetic acid] |  | 33.7 | 1330 |
